In paper PMC12257510, “Structure-Guided Design of a KMT9 Inhibitor Prodrug with Cellular Activity” (Journal of Medicinal Chemistry, 2025):

Experiments:
[1] = biological target: T1, KMT5A (Homo sapiens, UniProt Q9NQR1); assay: CETSA in intact SW480 cells, KMT5A; type: cell-based; parameters: endogenous in cells; host or cells: SW480
T1 sequence (Q9NQR1 1-393): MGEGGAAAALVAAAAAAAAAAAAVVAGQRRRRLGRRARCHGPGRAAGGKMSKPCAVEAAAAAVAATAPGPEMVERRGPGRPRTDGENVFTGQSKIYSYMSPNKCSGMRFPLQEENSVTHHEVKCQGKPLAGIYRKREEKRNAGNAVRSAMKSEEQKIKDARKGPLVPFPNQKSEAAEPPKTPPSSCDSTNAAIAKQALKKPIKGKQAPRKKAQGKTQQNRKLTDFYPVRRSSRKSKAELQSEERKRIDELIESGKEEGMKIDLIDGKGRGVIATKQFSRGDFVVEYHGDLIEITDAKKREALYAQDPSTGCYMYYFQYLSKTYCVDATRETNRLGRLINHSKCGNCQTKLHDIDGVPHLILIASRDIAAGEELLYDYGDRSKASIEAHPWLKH
Description: (§1) For whole cell CETSA, the cells were incubated with 10/15 μM of compound 7b/8/8-N for 18 h. Then, cells were washed with cell culture medium, detached from the surface using trypsin, washed with PBS and the number of cells was determined. Cell concentration was adjusted to 3.6 × 10^7 cells/mL using in PBS with Complete (w/o EDTA, Roche) protease inhibitor. Then, cells were frozen in liquid nitrogen and thawed at 25 °C three times, before being divided in 16 aliquots. Each aliquot was heated to a defined temperature between 40 and 70 °C in a PCR cycler (16 well gradient, 55 °C ± 15). After 3 min incubation, aliquots were snap frozen in liquid nitrogen and thawed at 25 °C. Cell lysates were then centrifuged at 20,000 × g , 4 °C for 20 min. Supernatant were mixed with 5× loading buffer, heated to 70 °C for 5 min and analyzed by Western blotting essentially as previously described. For the CETSA performed with cell lysates, cells were directly harvested and lysed as described above. […]
(§2) Figure S4. […] Representative Western blots (A) and quantification (B) showing no obvious shifting melting temperatures (ΔT m) of endogenous KMT5A upon treatment with compound 7b compared to DMSO. […]
(§3) Representative Western blots (C) and quantification (D) showing no shifting melting temperatures (ΔT m) of endogenous KMT5A upon treatment with compound 8 compared to DMSO. […]

[2] = test system: HepG2 cells; assay: Cell proliferation assay, HepG2; type: cell-based, human; details: vs DMSO
[3] = biological target: T2, endogenous KMT9a (Homo sapiens, UniProt Q9Y5N5); assay: CETSA in intact SW480 cells, KMT9; type: cell-based; details: 18 h, vs DMSO
T2 construct: increased thermal stability of endogenous KMT9 in SW480 cell lysates; endogenous in cells; host or cells: SW480
T2 sequence (Q9Y5N5 1-214): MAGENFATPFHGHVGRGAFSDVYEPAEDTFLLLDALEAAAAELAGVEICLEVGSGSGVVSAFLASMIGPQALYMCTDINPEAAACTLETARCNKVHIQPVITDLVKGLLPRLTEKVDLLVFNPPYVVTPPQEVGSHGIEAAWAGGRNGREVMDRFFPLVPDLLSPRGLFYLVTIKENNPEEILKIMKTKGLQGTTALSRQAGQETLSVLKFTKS
T2 sequence (Q9UI30 1-125 partner): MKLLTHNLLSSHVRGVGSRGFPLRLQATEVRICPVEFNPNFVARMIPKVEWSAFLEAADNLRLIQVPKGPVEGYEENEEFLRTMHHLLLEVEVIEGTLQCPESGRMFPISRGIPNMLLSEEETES
Description: For whole cell CETSA, the cells were incubated with 10/15 μM of compound 7b/8/8-N for 18 h. Then, cells were washed with cell culture medium, detached from the surface using trypsin, washed with PBS and the number of cells was determined. Cell concentration was adjusted to 3.6 × 10^7 cells/mL using in PBS with Complete (w/o EDTA, Roche) protease inhibitor. Then, cells were frozen in liquid nitrogen and thawed at 25 °C three times, before being divided in 16 aliquots. Each aliquot was heated to a defined temperature between 40 and 70 °C in a PCR cycler (16 well gradient, 55 °C ± 15). After 3 min incubation, aliquots were snap frozen in liquid nitrogen and thawed at 25 °C. Cell lysates were then centrifuged at 20,000 × g , 4 °C for 20 min. Supernatant were mixed with 5× loading buffer, heated to 70 °C for 5 min and analyzed by Western blotting essentially as previously described. For the CETSA performed with cell lysates, cells were directly harvested and lysed as described above. The lysates were then split and incubated either with DMSO or 10 μM compound 7b for 2 h. Then, lysates were aliquoted again into 16 samples each and treated as described for the whole cell CETSA.

[4] = biological target: T3, KMT9a (Homo sapiens, UniProt Q9Y5N5); assay: CETSA in HepG2 cells, KMT9; type: cell-based; parameters: prodrug compound 8 can target endogenous KMT9; endogenous in cells; host or cells: HepG2; details: vs DMSO
T3 sequence (Q9Y5N5 1-214): T2 sequence (Q9Y5N5 1-214)
T3 sequence (Q9UI30 1-125 partner): T2 sequence (Q9UI30 1-125 partner)
Description: as §1
(§4) Figure S5. […] Representative Western blots (D) and quantification (E) showing increased melting temperatures (ΔT m) of endogenous KMT9a upon treatment with compound 8 compared to DMSO. […] Representative Western blots (F) and quantification (G) showing no obvious shifting melting temperatures (ΔT m) of endogenous KMT5A upon treatment with compound 8 compared to DMSO. […]

[5] = biological target: T1, KMT5A; assay: CETSA in HepG2 cells, KMT5A; type: cell-based; parameters: KMT5A upon treatment with compound 8 compared to DMSO; endogenous in cells; host or cells: HepG2
Description: as §1, §4

[6] = test system: Caco-2 cells; assay: Cell proliferation assay (X-Celligence), Caco-2; type: cell-based; details: Xcelligence, vs DMSO
Description: Cell proliferation was determined using the X-Celligence RTCA system (Roche). For real-time recording of SW480, Caco-2 cell proliferation, 5000 cells/well were seeded in 16 well E-plates (Roche). […] Cell indices were automatically recorded every 15 min. Relative velocities represent the change of the cell index over time. The sequences of the siRNAs (Stealth RNAi siRNAs; Life Technologies) used in the experiments have been previously described.

[7] = biological target: T3, KMT9a; assay: CETSA in Caco-2 cells, KMT9; type: cell-based; parameters: of endogenous KMT9 upon treatment with; endogenous in cells; host or cells: Caco-2
Description: as §1, §2, §3

ΔTm at 10 µM [1]: -0.6 °C | ΔTm at 10 µM [3]: 5 °C | ΔTm at 15 µM [4]: 8 °C | ΔTm at 15 µM [5]: 0.1 °C | ΔTm at 15 µM [7]: 6.1 °C
SMILES: CCOC(=O)[C@@H](N)CCN(CCCNCCc1ccc(Oc2ccc(Cl)cc2)c(F)c1)C[C@H]1C[C@@H](n2ccc3c(NC)ncnc32)[C@H](O)[C@@H]1O [compound 8, Ethyl (S)-2-amino-4-((3-((4-(4-chlorophenoxy)-3-fluorophenethyl)amino)propyl) (((1R,2R,3S,4R)-2,3-dihydroxy-4-(4-(methylamino)-7H-pyrrolo[2,3-d]pyrimidin-7-yl)cyclopentyl)methyl)amino)butanoate]
Proliferation of HepG2 cells [2]: did not affect cell proliferation | Proliferation of Caco-2 cells [6]: strongly suppressed proliferation
